Converted amounts (≈) assume the structure as drawn.
Assays:
Staphylococcus aureus [1] = experiment: Growth inhibition of Staphylococcus aureus ATCC 29213 at 1000 uM after 16 hrs by broth microdilution method; type: functional; details: ATCC 29213, 16 h, read-out: GI
Staphylococcus aureus [2] = experiment: Growth inhibition of Staphylococcus aureus ATCC 29213 at 860 uM after 16 hrs by broth microdilution method; type: functional; details: ATCC 29213, 16 h, read-out: GI
Staphylococcus aureus [3] = experiment: Antibacterial activity against Staphylococcus aureus ATCC 29213 after 16 hrs by broth microdilution method; type: functional; details: ATCC 29213, 16 h
Staphylococcus aureus [4] = experiment: Growth inhibition of Staphylococcus aureus ATCC 29213 at 820 uM after 16 hrs by broth microdilution method; type: functional; details: ATCC 29213, 16 h, read-out: GI
Staphylococcus aureus [5] = experiment: Growth inhibition of Staphylococcus aureus ATCC 29213 at 1230 uM after 16 hrs by broth microdilution method; type: functional; details: ATCC 29213, 16 h, read-out: GI
Staphylococcus aureus [6] = experiment: Growth inhibition of Staphylococcus aureus ATCC 29213 at 1540 uM after 16 hrs by broth microdilution method; type: functional; details: ATCC 29213, 16 h, read-out: GI
Staphylococcus aureus [7] = experiment: Growth inhibition of Staphylococcus aureus ATCC 29213 at 550 uM after 16 hrs by broth microdilution method; type: functional; details: ATCC 29213, 16 h, read-out: GI
[8] = molecular target: T1, Type III pantothenate kinase (Bacillus anthracis, UniProt Q81VX4); experiment: Inhibition of Bacillus anthracis pantothenate kinase 3
T1 sequence (Q81VX4 whole entry): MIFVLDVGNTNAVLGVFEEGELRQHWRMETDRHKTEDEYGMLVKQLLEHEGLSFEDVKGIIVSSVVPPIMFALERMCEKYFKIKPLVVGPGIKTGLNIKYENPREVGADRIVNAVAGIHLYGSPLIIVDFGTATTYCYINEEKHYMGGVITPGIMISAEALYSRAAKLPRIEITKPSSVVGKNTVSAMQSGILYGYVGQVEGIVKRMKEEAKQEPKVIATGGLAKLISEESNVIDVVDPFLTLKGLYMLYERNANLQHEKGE

`COC(=O)CCCNC(=O)[C@H](O)C(C)(C)CO` showed an inhibition of growth at 1000 µM (Staphylococcus aureus [1]) of 16%.
`CCCCCn1cc(CCNC(=O)[C@H](O)C(C)(C)CO)nn1` was tested, and the inhibition of growth at 860 µM (Staphylococcus aureus [2]) was 99%.
`CCCCCNC(=O)CCNC(=O)[C@H](O)C(C)(C)CO` was tested, and the MIC (Staphylococcus aureus [3]) was 14 µM (≈ 4.04 µg/mL).
Work on `CC(C)(CO)[C@@H](O)C(=O)NCC(=O)O` yielded an inhibition of growth at 1000 µM (Staphylococcus aureus [1]) of 18%.
For `CCCCCc1cn(CCNC(=O)[C@H](O)C(C)(C)CO)nn1`, the inhibition of growth at 820 µM (Staphylococcus aureus [4]) was 72%.
`COC(=O)CCNC(=O)[C@H](O)C(C)(C)CO` showed an inhibition of growth at 1000 µM (Staphylococcus aureus [1]) of 15%.
Molecule `O=C(O)CCNC(=O)[C@H](O)CCO` has an inhibition of growth at 1230 µM (Staphylococcus aureus [5]) of 9%.
`CC(C)(CO)[C@@H](O)C(=O)NCc1cn(CCc2ccccc2)nn1` gave an inhibition of growth at 1540 µM (Staphylococcus aureus [6]) of 2%.
`CCCCn1cc(CCNC(=O)[C@H](O)C(C)(C)CO)nn1` was tested, and the inhibition of growth at 550 µM (Staphylococcus aureus [7]) was 86%.
Molecule `CCCCCn1cc(CNC(=O)[C@H](O)C(C)(C)CO)nn1` has an inhibition of growth at 860 µM (Staphylococcus aureus [2]) of -5%.
`CC(C)(CO)[C@@H](O)C(=O)NCCCC(=O)O` [HOPANTENIC ACID] was tested, and the inhibition of growth at 1000 µM (Staphylococcus aureus [1]) was 87%.
`COC(=O)CNC(=O)[C@H](O)C(C)(C)CO` showed an inhibition of growth at 1000 µM (Staphylococcus aureus [1]) of 84%.
`Nc1ncnc2c1ncn2[C@@H]1O[C@H](Cn2cc(CO[C@@H]3O[C@H](CO)[C@H](O)[C@H](O)[C@H]3O)nn2)[C@@H](O)[C@H]1O` was tested, and the Ki [8] was 164 µM.
With `CCCc1cn(CCCNC(=O)[C@H](O)C(C)(C)CO)nn1` the inhibition of growth at 860 µM (Staphylococcus aureus [2]) was -13%.
